Consider 15 molecules from ChEMBL document CHEMBL5325415, “Falcipains: Biochemistry, target validation and structure-activity relationship studies of inhibitors as antimalarials” (Eur J Med Chem, 2023).

What is called IC50 is the point on the concentration scale where inhibition reaches its midpoint. Usually Kd stands for a measure of binding affinity in units of concentration. The Ki is the dissociation constant of the complex between target and ligand, obtained from inhibition or displacement. As usually defined, the EC50 is the concentration at which the effect is half-maximal.

*1 amine or outer side, *2 acyl side, *3 side chain or, on linkers, in order; H or OH if unused. Where a SMILES comes first, the peptide text is derived from it. [ ]: non-standard residue; d: D form. The star is where a group is joined. hPhe = N[C@@H](CCc1ccccc1)C(=O)O; Ac6c = NC1(C(=O)O)CCCCC1; Morpholide = C1CN(*)CCO1; Cbz = O=C(OCc1ccccc1)*; CO = O=C([*:1])[*:2]; CH2F = FC*

Series [1] concerns the target T1, Falcipain 2 (Plasmodium falciparum, UniProt Q9N6S8).
T1 sequence (Q9N6S8 whole entry): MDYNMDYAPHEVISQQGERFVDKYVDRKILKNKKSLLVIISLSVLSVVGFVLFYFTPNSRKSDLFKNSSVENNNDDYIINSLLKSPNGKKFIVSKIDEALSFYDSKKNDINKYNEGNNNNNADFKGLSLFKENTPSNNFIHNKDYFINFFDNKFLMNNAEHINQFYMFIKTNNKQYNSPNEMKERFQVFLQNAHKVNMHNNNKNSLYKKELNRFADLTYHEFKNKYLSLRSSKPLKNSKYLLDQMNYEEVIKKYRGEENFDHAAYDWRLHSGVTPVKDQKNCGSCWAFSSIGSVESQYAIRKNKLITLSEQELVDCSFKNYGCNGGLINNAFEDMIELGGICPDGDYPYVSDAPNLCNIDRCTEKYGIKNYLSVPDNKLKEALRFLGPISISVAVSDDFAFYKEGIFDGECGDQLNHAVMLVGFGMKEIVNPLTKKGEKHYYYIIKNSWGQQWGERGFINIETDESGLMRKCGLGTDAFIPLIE
Put plainly: Inhibition of Plasmodium falciparum FP-2 using Z-Leu-Arg-AMC as substrate pretreated with enzyme for 30 mins followed by substrate addition and measured for 30 mins by spectrofluorometry.

Series [2] deals with T1, Falcipain 2. Put plainly: Binding affinity to Plasmodium falciparum FP-2 by surface plasmon resonance analysis.
The subject of series [3] is Plasmodium falciparum. Put plainly: Antiplasmodial activity against chloroquine-sensitive Plasmodium falciparum D6 infected in human RBC assessed as inhibition of parasite growth measured after 72 hrs by Malstat assay. Type of series: functional, organism-based. To be noted: D6, Erythrocyte.
Series [4] relates to Plasmodium falciparum. Put plainly: Antiplasmodial activity against chloroquine-resistant Plasmodium falciparum W2 infected in human RBC assessed as inhibition of parasite growth measured after 72 hrs by Malstat assay. Type of series: functional, organism-based. To be noted: W2, Erythrocyte.
Series [5] has as its system Plasmodium falciparum. The series is described as follows: Antiplasmodial activity against Plasmodium falciparum Dd2. Type of series: functional, organism-based.
Series [6] deals with Plasmodium falciparum. The series is described as follows: Antiplasmodial activity against Plasmodium falciparum W2. Type of series: functional, organism-based.
The test system of series [7] is Plasmodium falciparum. Put plainly: Antiplasmodial activity against Plasmodium falciparum ItG. Type of series: functional, organism-based.
Series [8] concerns Plasmodium falciparum. Put plainly: Antiplasmodial activity against Plasmodium falciparum D6. Type of series: functional, organism-based.
In series [9] the test system is Plasmodium falciparum. Put plainly: Antiplasmodial activity against Plasmodium falciparum HB3. Type of series: functional, organism-based.
Series [10] addresses T1, Falcipain 2. The series is described as follows: Inhibition of Plasmodium falciparum trophozite extracts FP-2.
For series [11], the target named is T1, Falcipain 2. Put plainly: Inhibition of Plasmodium falciparum FP-2 using Cbz-Leu-Arg-AMC as substrate and measured for 5 to 10 mins by fluorescence spectrophotometric analysis.
Series [12] concerns Cathepsin L (relative to Plasmodium falciparum FP-2). The series is described as follows: Selectivity index, ratio of Ki for inhibition of human Cathepsin L to Ki for inhibition of Plasmodium falciparum FP-2. Type of series: toxicity. The following applies: read-out: Ratio Ki.
In series [13] the test system is Cathepsin B (relative to Plasmodium falciparum FP-2). The series is described as follows: Selectivity index, ratio of Ki for inhibition of human Cathepsin B to Ki for inhibition of Plasmodium falciparum FP-2. To be noted: read-out: Ratio Ki. Type of series: toxicity.
Series [14] concerns Plasmodium falciparum. The series is described as follows: Antiplasmodial activity against Plasmodium falciparum FCR3. Type of series: functional, organism-based.
Series [15] has as its system Plasmodium falciparum. Put plainly: Antiplasmodial activity against Plasmodium falciparum ItG2. Type of series: functional. The following applies: read-out: LD50 (the source's name).
In another series the test system is Plasmodium vinckei. Put plainly: Antimalarial activity against Plasmodium vinckei infected in Swiss webster mouse assessed as disease cure rate at 50 to 100 mg/kg, po administered twice a day for 4 days. To be noted: dose 50-100 mg/kg, time 4 day. Type of series: functional.
Series [16] deals with T1, Falcipain 2. The series is described as follows: Inhibition of Plasmodium falciparum Itg2 trophozite extracts FP-2 using Z-phe-Arg-AMC as substrate pretreated with enzyme for 30 mins followed by substrate addition and measured for 30 mins by spectrofluorometry.
Series [17] in a line: Inhibition of Plasmodium vinckei extracts VP-2 using Z-phe-Arg-AMC as substrate pretreated with enzyme for 30 mins followed by substrate addition and measured for 30 mins by spectrofluorometry.
In the next series the target is T2, Falcipain-3 (Plasmodium falciparum 3D7, UniProt Q8IIL0).
T2 sequence (Q8IIL0 whole entry): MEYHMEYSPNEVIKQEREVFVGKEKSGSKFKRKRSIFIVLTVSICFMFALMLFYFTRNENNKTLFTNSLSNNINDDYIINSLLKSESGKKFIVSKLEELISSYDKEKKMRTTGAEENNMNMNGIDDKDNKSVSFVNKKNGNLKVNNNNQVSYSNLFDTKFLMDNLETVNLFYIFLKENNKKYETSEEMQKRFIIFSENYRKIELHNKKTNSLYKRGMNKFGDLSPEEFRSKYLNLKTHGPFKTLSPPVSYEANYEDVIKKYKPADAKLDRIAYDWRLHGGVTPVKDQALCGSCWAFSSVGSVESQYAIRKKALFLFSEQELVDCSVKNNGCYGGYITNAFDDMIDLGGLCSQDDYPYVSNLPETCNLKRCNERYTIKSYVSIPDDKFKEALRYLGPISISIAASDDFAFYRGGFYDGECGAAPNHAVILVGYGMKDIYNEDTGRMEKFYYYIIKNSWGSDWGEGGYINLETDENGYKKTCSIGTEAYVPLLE
Put plainly: Inhibition of Plasmodium falciparum D10 trophozite lysates FP-3 pretreated with compound for 1 hr followed by labeling with Cy5-DCG04 for 1 hr by fluorescence scanning analysis. Type of series: subcellular.

In series [18] the test system is Plasmodium falciparum. The series is described as follows: Antimalarial activity against Chloroquine-sensitive Plasmodium falciparum 3D7 infected in human erythrocytes assessed as inhibition of parasite growth incubated for 72 hrs by Giemsa staining based analysis. Type of series: functional, organism-based. The following applies: 3D7, Erythrocyte.
In series [19] the test system is Plasmodium falciparum. Put plainly: Antimalarial activity against Chloroquine-resistant Plasmodium falciparum RKL9 infected in human erythrocytes assessed as inhibition of parasite growth incubated for 72 hrs by Giemsa staining based analysis. Type of series: functional, organism-based. To be noted: RKL9, Erythrocyte.
Series [20] concerns the target T1, Falcipain 2. The series is described as follows: Inhibition of Plasmodium falciparum FP-2 using Z-Phe-Arg-AMC as substrate pretreated with enzyme for 10 mins followed by susbtrate addition and measured after 10 mins by fluorescence based analysis.
Series [21] has as its target T1, Falcipain 2. The series is described as follows: Inhibition of Plasmodium falciparum FP-2 using Z-Leu-Arg-AMC as substrate pretreated with enzyme for 30 mins followed by substrate addition and measured for 15 mins by spectrofluorometry.
Series [22] concerns Plasmodium falciparum. The series is described as follows: Antiplasmodial activity against Plasmodium falciparum W2 infected in human erythrocytes assessed as inhibition of parasite growth measured after 48 hrs by flow cytometry. Type of series: functional, organism-based. The following applies: W2, Erythrocyte.
The target in series [23] is T1, Falcipain 2. Put plainly: Inhibition of Plasmodium falciparum FP-2 using Z-phe-Arg-AMC as substrate pretreated with enzyme for 30 mins followed by substrate addition and measured for 30 mins by fluorescence based analysis.
The test system of series [24] is Plasmodium falciparum. Put plainly: Antimalarial activity against Plasmodium falciparum FCB1 infected in erythrocytes assessed as inhibition of [3H]hypoxanthine incorporation incubated for 24 to 48 hrs by beta counting analysis. The following applies: FCB1, Erythrocyte. Type of series: functional, organism-based.
The next series relates to Heme. The series is described as follows: Inhibition of heme (unknown origin) assessed as inhibition of hemozoin formation incubated for 24 hrs by FBIT test.

Regarding `O=C(/C=C\c1ccc(O)c(O)c1)O[C@H]1CO[C@@H](Oc2c(-c3ccc(O)cc3)oc3cc(O)cc(O)c3c2=O)[C@H](OC(=O)/C=C/c2ccc(O)cc2)[C@H]1O`, the IC50 worked out at 440 nM on Falcipain 2 [1], 2900 nM in the series on Plasmodium falciparum [3] and 2800 nM in the series with Plasmodium falciparum [4]. At Falcipain 2 [2], this molecule registered an equilibrium dissociation constant (Kd) of 33600 nM.

On to `O=C(CF)[C@H](CCc1ccccc1)NC(=O)[C@H](Cc1ccccc1)NC(=O)N1CCOCC1` ({Morpholide-CO}-Phe-[hPhe]-CH2F), for which the IC50 in the series on Plasmodium falciparum [5] stood at 0.78 nM; in the series on Plasmodium falciparum [6], 0.81 nM; with Plasmodium falciparum [7], 0.51 nM; with Plasmodium falciparum [8], 0.9 nM; in the series on Plasmodium falciparum [9] it was 0.66 nM; against Falcipain 2 [10], 3 nM.

Regarding `O=CCNC(=O)C1(NC(=O)OCc2ccccc2)CCCCC1` (Cbz-[Ac6c]-Gly-aldehyde), the affinity on Falcipain 2 [11] corresponds to a Ki of 65 nM. The selectivity ratio in series [12] is 12.6; in series [13], 20.8.

In the case of `N=C(N)NCCC[C@H](NC(=O)[C@H](Cc1ccccc1)NC(=O)OCc1ccccc1)C(=O)CF` (Cbz-Phe-Arg-CH2F), the IC50 in the series on Plasmodium falciparum [6] stood at 64 nM; in the series on Plasmodium falciparum [14] it was 64 nM; in the series with Plasmodium falciparum [8], 64 nM; in the series on Plasmodium falciparum [9], 100 nM; against Falcipain 2 [10] it was 0.36 nM. The LC50 with Plasmodium falciparum [15] turned out to be 64 nM.

Consider `CC(C)C[C@H](NC(=O)N1CCN(C)CC1)C(=O)N[C@H](/C=C/S(=O)(=O)c1ccc2ccccc2c1)CCc1ccccc1`, for which the IC50 was 0.32 nM in the series with Plasmodium falciparum [5]; 0.2 nM with Plasmodium falciparum [6]; 0.18 nM in the series on Plasmodium falciparum [7]; 0.22 nM with Plasmodium falciparum [8]; 2 nM at Falcipain 2 [16]; 0.19 nM in the series with Plasmodium falciparum [9]. Further, in [17], the IC50 amounted to 20 nM. Moreover, the Activity in the series on Plasmodium vinckei was found to be 40%.

For the molecule `CC(C)C[C@H](NC(=O)N1CCOCC1)C(=O)N[C@H](/C=C/S(=O)(=O)c1ccccc1)CCc1ccccc1`, the IC50 in the series with Plasmodium falciparum [5] amounted to 0.66 nM; in the series on Plasmodium falciparum [6] it was 1.2 nM; in the series on Plasmodium falciparum [7], 1.03 nM; in the series with Plasmodium falciparum [8] it was 1.51 nM; with Plasmodium falciparum [9], 1.6 nM; in [17], 200 nM.

As for `CC[C@H](C)[C@@H](C(=O)O[C@@H](CC(C)C)C(=O)N[C@@H](CC(C)C)C(=O)N[C@@H](C)/C=C/C(=O)N1C(=O)C=C(OC)[C@@H]1C)N(C)C` [GALLINAMIDE A], the IC50 on Falcipain-3 worked out at 22 nM.

For `CC(C)C[C@H](NC(=O)N1CCN(C)CC1)C(=O)N[C@H](/C=C/S(=O)(=O)c1ccccc1)CCc1ccccc1`, the IC50 with Plasmodium falciparum [5] came to 0.4 nM; in the series with Plasmodium falciparum [6], 0.45 nM; in the series on Plasmodium falciparum [7], 0.6 nM; in the series with Plasmodium falciparum [8] it was 0.58 nM; at Falcipain 2 [16], 5 nM; in the series with Plasmodium falciparum [9], 0.44 nM. Further, the IC50 in [17] turned out to be 200 nM.

Turning to `COc1cc(/C=C(\C#N)c2nc3ccccc3[nH]2)cc(OC)c1`, the IC50 with Plasmodium falciparum [18] was 1600 nM; with Plasmodium falciparum [19] it was 14300 nM; on Falcipain 2 [20], 3610 nM.

The molecule `N#CCNC(=O)C1(NC(=O)OCc2ccccc2)CCCCC1` yielded an inhibitory constant (Ki) at Falcipain 2 [11] of 1200 nM. Moreover, the values for the selectivity ratio in series [12] and in series [13] were 22.1 and > 100, respectively.

Molecule `CC(C)C[C@H](NC(=O)N1CCOCC1)C(=O)N[C@@H](CCc1ccccc1)C(=O)CF` ({Morpholide-CO}-Leu-[hPhe]-CH2F) yielded an IC50 at Falcipain 2 [10] of 0.42 nM.

Take `O=C(N[C@H](/C=C/S(=O)(=O)c1ccccc1)CCc1ccccc1)[C@H](Cc1ccccc1)NC(=O)N1CCOCC1`: the IC50 is 80 nM on Falcipain 2 [16] and 100 nM in series [17].

Take `COc1cc(OC)c(/C=C2\SC(=O)N(CC(=O)N3CCN(c4ccccc4)CC3)C2=O)c(OC)c1`: the IC50 on Falcipain 2 [21] was found to be 25500 nM. In addition, the EC50 in the series with Plasmodium falciparum [22] was determined as 450 nM.

Regarding `COc1cc2cc(/C=C/C(=O)c3ccc(Cl)cc3Cl)c(Cl)nc2cc1OC`, the IC50 was > 100000 nM at Falcipain 2 [23] and 19000 nM in the series with Plasmodium falciparum [24].

Turning to `COc1cccc(/C=C(\C#N)c2nc3ccccc3[nH]2)c1`, the IC50 in the series on Heme came out at 260 nM; with Plasmodium falciparum [18], 690 nM; with Plasmodium falciparum [19], 3410 nM; on Falcipain 2 [20], 2210 nM.
